Measured values reported in US6596307B1, “Process for preparing pharmaceutical bulk material having uniform dissolution” (Eli Lilly and Company, priority 2001, dated 2003).
“And” between values parts separate entries of the source, which are not always exact repeats. Equal values may be shown once.

What was measured:
Assay type in all cases: physicochemical
[1] = Near Infrared Dihydrate Conversion Test (NIR onset time); conditions: for NIR Onset Time: cefaclor dihydrate dried in fluidized bed to different water contents (Table 2)
Text: “NIR onset time” refers to the time between addition of water to a cefaclor sample and the observation of an absorption peak at about 5798 cm^−1 (1725 nm) as measured by Near-Infrared Reflectance Spectroscopy (NIRS). Depending upon the particular instrument used, the exact peak measurement may vary within the standard deviation established for that particular instrument.
The NIRS conversion test measures the time in minutes before the onset of the crystal form reversion for a sample of cefaclor bulk. […] To ensure that a lot will have an acceptable dissolution rate, one generally strives for a NIR onset time of >7 minutes, preferably >9 minutes and more preferably >10 minutes.
Approximately 1 to 2 grams of sample was spread in a thin layer on the bottom of an open aluminum weighing pan and placed in a constant humidity chamber, containing a saturated aqueous solution of K2HPO4, for at least two hours prior to analysis. Following equilibration in the humidity chamber, the sample was packed into a 2 mm×6 mm, stainless steel sample cup until full (approximately 35 mg), and 6 μL of water placed in the center of the sample. NIR data were collected using the NIR Systems model 5000 equipped with a fiber optic diffuse-reflectance probe, positioned over the sample cup. Immediately following addition of the water, NIR spectra were recorded from 1100 to 2500 nm approximately each 30 seconds. The time elapsed prior to the first appearance of the dihydrate peak at 1725 nm (5798 cm^−1) was reported as the NIR onset time.

[2] = Solubility in water of crystal forms
[3] = USP 23 Standard Dissolution Test for Cefaclor Capsules; design: Capsule dissolution rate, 1st stage (Avg. n = 6) / Capsule dissolution rate, 1st stage, individual unit / Capsule dissolution rate, 2nd stage, individual unit: unit: %; conditions: water 37° C., 30 minutes, then rehydrated; for Capsule dissolution rate, 1st stage, individual unit: % dissolved
Method: Dissolution (711): The test conditions are USP Apparatus 2 at 50 rpm using 900 ml of purified water maintained at 37° C. for 30 minutes. Determine the amount of Cefaclor monohydrate dissolved from ultraviolet absorbances at the wavelength of maximum absorbances at about 264 nm of filtered portions of the solution under test, suitably diluted with water, in comparison with a Standard solution having a know concentration of USP Cefaclor RS in the same medium.
Dissolution testing is continued with additional units through three stages unless the results conform at either the 1st or 2nd stage according to the following acceptance
The quantity, Q, is the % of dissolved active ingredient in the specification. For Cefaclor, at Stage 1, each individual unit must be at least 85% dissolved in 30 minutes to pass the testing. If any of the 6 units tested is less than 85% dissolved, the product fails level S1 and you must go to S2. At Stage 2, the mean of the twelve units tested (first 6 from S1 and 6 from S2) must be at least 80% dissolved and no unit may be less than 65% dissolved. If these criteria are not met, the product fails the level S2 specification and you must go to S3. At Stage 3, the mean of the 24 units tested (6 from S1+6 from S2+12 from S3) must be at least 80% dissolved, no more than 2 units may be less than 65% dissolved, and none of the units may be less than 55% dissolved.

[4] = Model Dissolution Test (capsule filled with drug substance only); conditions: no related substances added; failed the test
Method: Approximately 523 mg of bulk cefaclor is filled into an empty 500 mg cefaclor capsule (KG3062). The USP monograph dissolution test is then performed with filtered samples being withdrawn at 15, 30, and 45 minutes. The test conditions are USP Apparatus 2 at 50 rpm using 900 ml of purified water maintained at 37° C. Visual examination is done at the time of sample collection. Visual observations range from “the material is completely dissolved and/or dispersed within 5 minutes with no visible residue or agglomerates to a large intact mass remains at the end of 45 minutes that is hard to the touch.” An ultraviolet (UV) assay is conducted on the filtered aliquots to determine the percent dissolution.

[5] = X-ray diffraction conversion rate test (monohydrate to dihydrate after addition of water); conditions: added at 0.5% by weight to poorly dissolving lot, mixed dry; 1 ml water to 0.80 g sample
Method: Through X-ray diffraction studies of readily dissolving and incompletely dissolving lots of cefaclor, it was determined that all lots are initially in the same crystallographic state (monohydrate). Upon addition of water to readily dissolving lots, there is no change in the X-ray powder diffraction pattern over a five minute period. In contrast, when water is added to incompletely dissolving lot of cefaclor, substantial amounts of the dihydrate form are detected in less than five minutes. In an older lot of cefaclor, no dihydrate was detected for as long as two days, at which time the study was discontinued.
The Δ^2-isomer was added to a poorly dissolving lot of cefaclor at 0.5% concentration by weight. The sample was mixed in the dry state. After addition of 1 ml of water to a 0.80 g sample, the X-ray diffraction pattern was collected at different time intervals.
Kinetic studies were carried out using fraction 6 to gain a better understanding of how much would be required to achieve acceptable results in the model dissolution test.

[6] = lots dried with full desiccation dried air
[7] = lots dried with 40 grains dried air
[8] = bulk dried to 3.0 to 6.5% water (control method)

## N[C@@H](C(=O)N[C@@H]1C(=O)N2C(C(=O)O)=C(Cl)CS[C@H]12)c1ccccc1.O [Sample 1-2]
[1]
  NIR Onset Time: 11 min

## N[C@@H](C(=O)N[C@@H]1C(=O)N2C(C(=O)O)=C(Cl)CS[C@H]12)c1ccccc1 [cefaclor dihydrate]
[2]
  solubility in water relative to the monohydrate form: less readily soluble

## N[C@@H](C(=O)N[C@@H]1C(=O)N2C(C(=O)O)=C(Cl)CS[C@H]12)c1ccccc1 [amorphous cefaclor, reference compound]
[1]; indicator tests
  effect of addition to a cefaclor bulk sample on dihydrate reversion time: decrease the reversion onset time

## N[C@@H](C(=O)N[C@@H]1C(=O)N2C(C(=O)O)=C(Cl)CS[C@H]12)c1ccccc1 [Sample 2-1a]
[3]; [6]
  Capsule dissolution rate, 1st stage, individual unit: 102% (2×) and 100% and 94% and 101% (2×)
  Capsule dissolution rate, 1st stage (Avg. n = 6): 100

## N[C@@H](C(=O)N[C@@H]1C(=O)N2C(C(=O)O)=C(Cl)CS[C@H]12)c1ccccc1
[4]
  dissolved in thirty minutes: 78%

## N[C@@H](C(=O)N[C@@H]1C(=O)N2C(C(=O)O)=C(Cl)CS[C@H]12)c1ccccc1.O [Sample 1-1]
[1]
  NIR Onset Time: 3 min

## N[C@@H](C(=O)N[C@@H]1C(=O)N2C(C(=O)O)=C(Cl)CS[C@H]12)c1ccccc1 [Sample 2-2a]
[3]; [7]
  Capsule dissolution rate, 1st stage, individual unit: 97 and 92 and 95 and 81 and 98 and 101
  Capsule dissolution rate, 1st + 2nd stage (Avg. n = 12): 96
  Capsule dissolution rate, 1st stage (Avg. n = 6): 94
  Capsule dissolution rate, 2nd stage (Avg. n = 6): 98
  Capsule dissolution rate, 2nd stage, individual unit: 98 and 95 and 99 and 100 and 97 and 96

## N[C@@H](C(=O)N[C@@H]1C(=O)N2C(C(=O)O)=C(Cl)CS[C@H]12)c1ccccc1.O [Sample 1-3]
[1]
  NIR Onset Time: 2.5 min

## N[C@@H](C(=O)NC1C(=O)N2C(C(=O)O)C(Cl)=CS[C@H]12)c1ccccc1 (stereo partly drawn) [Δ^2-isomer]
[5]
  inhibitory effect on conversion to dihydrate: minor inhibitory effect

## N[C@@H](C(=O)N[C@@H]1C(=O)N2C(C(=O)O)=C(Cl)CS[C@H]12)c1ccccc1 [Sample 2-1c]
[3]; [6]
  Capsule dissolution rate, 1st stage, individual unit: 90 and 95 and 97 and 89 and 96 (2×)
  Capsule dissolution rate, 1st stage (Avg. n = 6): 94

## N[C@@H](C(=O)N[C@@H]1C(=O)N2C(C(=O)O)=C(Cl)CS[C@H]12)c1ccccc1 [Sample 2-1b]
[3]; [6]
  Capsule dissolution rate, 1st stage, individual unit: 91 and 85 and 88 and 96 and 95 and 92
  Capsule dissolution rate, 1st stage (Avg. n = 6): 90

## N[C@@H](C(=O)NC1C(=O)N2C(C(=O)O)=C(Cl)CS[C@H]12)c1ccccc1 (some centres unmarked) [Cefaclor Monohydrate (Control), reference compound]
[1]; [8]
  NIR onset time, upper control limit: approximately 2.5 minutes
  average NIR onset time: 1.2 min
